# Source: BindingDB's records for doi:10.1016/j.bmc.2010.08.049 (University of Wisconsin-Milwaukee, 2010)
# How the values were obtained:
# [1] = target: T1, GABA-A receptor; alpha-5/beta-3/gamma-2 (Homo sapiens, UniProt P31644+P18507+P28472); assay: Displacement of [3H]flunitrazepam from human recombinant GABAA alpha-5-beta-3-gamma-2 receptor expressed in HEK cells by liquid scintillation counting
# T1 sequence (P31644 whole entry): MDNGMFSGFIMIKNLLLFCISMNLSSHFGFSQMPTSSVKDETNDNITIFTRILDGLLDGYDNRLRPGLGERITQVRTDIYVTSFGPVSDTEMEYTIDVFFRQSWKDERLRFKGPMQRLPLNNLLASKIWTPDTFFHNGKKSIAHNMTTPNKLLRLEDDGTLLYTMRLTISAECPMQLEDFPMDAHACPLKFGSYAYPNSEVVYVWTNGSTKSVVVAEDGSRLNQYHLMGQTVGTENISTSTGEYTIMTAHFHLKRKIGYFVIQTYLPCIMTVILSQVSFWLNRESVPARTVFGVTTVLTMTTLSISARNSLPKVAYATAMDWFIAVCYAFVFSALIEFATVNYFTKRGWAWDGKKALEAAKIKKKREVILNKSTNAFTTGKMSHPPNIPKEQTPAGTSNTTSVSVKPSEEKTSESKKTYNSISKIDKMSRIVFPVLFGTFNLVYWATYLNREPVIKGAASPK
# T1 sequence (P18507 whole entry): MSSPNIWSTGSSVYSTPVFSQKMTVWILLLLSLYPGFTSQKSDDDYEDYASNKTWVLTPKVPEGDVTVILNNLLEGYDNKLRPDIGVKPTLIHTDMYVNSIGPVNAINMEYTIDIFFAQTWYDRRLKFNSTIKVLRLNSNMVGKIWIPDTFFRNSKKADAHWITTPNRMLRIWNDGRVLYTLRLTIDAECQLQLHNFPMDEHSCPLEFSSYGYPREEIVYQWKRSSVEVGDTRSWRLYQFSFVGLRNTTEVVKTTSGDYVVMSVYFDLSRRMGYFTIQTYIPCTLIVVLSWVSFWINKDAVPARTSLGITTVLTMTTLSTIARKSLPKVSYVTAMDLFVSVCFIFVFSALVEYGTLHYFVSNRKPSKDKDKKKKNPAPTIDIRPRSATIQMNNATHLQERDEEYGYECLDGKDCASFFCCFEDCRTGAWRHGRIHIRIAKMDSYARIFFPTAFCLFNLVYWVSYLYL
# T1 sequence (P28472 whole entry): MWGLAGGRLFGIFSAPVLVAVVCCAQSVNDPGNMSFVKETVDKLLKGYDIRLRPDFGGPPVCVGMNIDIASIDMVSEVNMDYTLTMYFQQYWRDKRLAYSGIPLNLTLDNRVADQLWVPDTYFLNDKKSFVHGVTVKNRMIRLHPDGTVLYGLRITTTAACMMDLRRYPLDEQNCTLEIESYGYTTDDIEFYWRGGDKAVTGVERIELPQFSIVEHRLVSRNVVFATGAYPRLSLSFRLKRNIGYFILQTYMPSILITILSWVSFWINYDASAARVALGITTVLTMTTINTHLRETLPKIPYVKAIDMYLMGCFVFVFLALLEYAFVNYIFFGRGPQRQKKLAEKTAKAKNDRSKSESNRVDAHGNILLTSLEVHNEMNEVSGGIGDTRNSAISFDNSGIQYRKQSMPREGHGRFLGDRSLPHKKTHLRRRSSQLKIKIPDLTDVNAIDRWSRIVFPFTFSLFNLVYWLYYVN
# [2] = target: T2, GABA-A receptor; alpha-2/beta-3/gamma-2 (Homo sapiens, UniProt P47869+P18507+P28472); assay: Displacement of [3H]flunitrazepam from human recombinant GABAA alpha-2-beta-3-gamma-2 receptor expressed in HEK cells by liquid scintillation counting
# T2 sequence (P47869 whole entry): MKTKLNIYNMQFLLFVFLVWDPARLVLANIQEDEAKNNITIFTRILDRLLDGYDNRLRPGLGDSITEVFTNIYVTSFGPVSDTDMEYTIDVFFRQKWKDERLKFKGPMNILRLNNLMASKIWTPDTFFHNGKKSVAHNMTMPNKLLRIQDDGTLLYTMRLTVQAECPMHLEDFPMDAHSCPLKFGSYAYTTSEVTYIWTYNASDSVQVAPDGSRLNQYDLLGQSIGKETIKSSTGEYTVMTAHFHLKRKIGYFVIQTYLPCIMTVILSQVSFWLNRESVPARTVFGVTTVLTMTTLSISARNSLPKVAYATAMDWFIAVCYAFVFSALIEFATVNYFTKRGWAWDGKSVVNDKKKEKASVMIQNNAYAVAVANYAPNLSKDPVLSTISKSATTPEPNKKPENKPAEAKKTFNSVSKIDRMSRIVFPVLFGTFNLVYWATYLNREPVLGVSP
# T2 sequence (P18507 whole entry): T1 sequence (P18507 whole entry)
# T2 sequence (P28472 whole entry): T1 sequence (P28472 whole entry)
# [3] = target: T3, Gamma-aminobutyric acid receptor subunit alpha-1/beta-3/gamma-2 (Homo sapiens, UniProt P14867+P18507+P28472); assay: Displacement of [3H]flunitrazepam from human recombinant GABAA alpha-1-beta-3-gamma-2 receptor expressed in HEK cells by liquid scintillation counting
# T3 sequence (P14867 whole entry): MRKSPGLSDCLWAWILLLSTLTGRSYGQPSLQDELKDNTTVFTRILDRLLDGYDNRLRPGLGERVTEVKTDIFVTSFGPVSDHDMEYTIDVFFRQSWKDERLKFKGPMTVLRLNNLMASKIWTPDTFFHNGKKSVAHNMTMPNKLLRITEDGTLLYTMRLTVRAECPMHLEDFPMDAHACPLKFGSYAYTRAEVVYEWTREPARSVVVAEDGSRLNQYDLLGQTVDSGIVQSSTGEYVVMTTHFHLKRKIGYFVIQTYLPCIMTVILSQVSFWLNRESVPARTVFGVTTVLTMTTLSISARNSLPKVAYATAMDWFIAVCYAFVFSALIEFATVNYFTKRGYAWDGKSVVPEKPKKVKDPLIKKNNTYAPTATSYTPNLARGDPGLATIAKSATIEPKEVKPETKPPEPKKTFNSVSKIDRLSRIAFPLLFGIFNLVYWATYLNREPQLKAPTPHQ
# T3 sequence (P18507 whole entry): T1 sequence (P18507 whole entry)
# T3 sequence (P28472 whole entry): T1 sequence (P28472 whole entry)
# [4] = target: GABA A receptor alpha-4/beta-3/gamma-2 (Homo sapiens, UniProt P48169+P18507+P28472); assay: Displacement of [3H]flunitrazepam from human recombinant GABAA alpha-4-beta-3-gamma-2 receptor expressed in HEK cells by liquid scintillation counting
# GABA A receptor alpha-4/beta-3/gamma-2, sequence (P48169 whole entry, one chain of several): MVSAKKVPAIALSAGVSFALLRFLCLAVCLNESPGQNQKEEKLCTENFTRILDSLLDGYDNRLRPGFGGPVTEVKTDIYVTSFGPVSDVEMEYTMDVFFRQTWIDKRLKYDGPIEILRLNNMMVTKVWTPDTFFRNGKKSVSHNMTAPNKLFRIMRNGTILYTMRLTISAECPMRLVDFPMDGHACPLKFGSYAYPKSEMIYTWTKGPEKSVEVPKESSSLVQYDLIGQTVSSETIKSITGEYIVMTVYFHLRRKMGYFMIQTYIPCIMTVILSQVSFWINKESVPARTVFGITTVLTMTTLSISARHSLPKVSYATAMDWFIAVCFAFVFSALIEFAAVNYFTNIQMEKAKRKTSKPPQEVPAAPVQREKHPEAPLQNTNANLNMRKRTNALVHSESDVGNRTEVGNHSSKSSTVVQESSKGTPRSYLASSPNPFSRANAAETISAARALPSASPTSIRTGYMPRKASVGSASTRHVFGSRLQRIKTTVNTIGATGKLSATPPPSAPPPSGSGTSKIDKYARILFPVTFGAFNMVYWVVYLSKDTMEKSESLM
# [5] = target: T4, Gamma-aminobutyric acid receptor subunit alpha-3/beta-3/gamma-2 (Homo sapiens, UniProt P34903+P18507+P28472); assay: Displacement of [3H]flunitrazepam from human recombinant GABAA alpha-3-beta-3-gamma-2 receptor expressed in HEK cells by liquid scintillation counting
# T4 sequence (P34903 whole entry): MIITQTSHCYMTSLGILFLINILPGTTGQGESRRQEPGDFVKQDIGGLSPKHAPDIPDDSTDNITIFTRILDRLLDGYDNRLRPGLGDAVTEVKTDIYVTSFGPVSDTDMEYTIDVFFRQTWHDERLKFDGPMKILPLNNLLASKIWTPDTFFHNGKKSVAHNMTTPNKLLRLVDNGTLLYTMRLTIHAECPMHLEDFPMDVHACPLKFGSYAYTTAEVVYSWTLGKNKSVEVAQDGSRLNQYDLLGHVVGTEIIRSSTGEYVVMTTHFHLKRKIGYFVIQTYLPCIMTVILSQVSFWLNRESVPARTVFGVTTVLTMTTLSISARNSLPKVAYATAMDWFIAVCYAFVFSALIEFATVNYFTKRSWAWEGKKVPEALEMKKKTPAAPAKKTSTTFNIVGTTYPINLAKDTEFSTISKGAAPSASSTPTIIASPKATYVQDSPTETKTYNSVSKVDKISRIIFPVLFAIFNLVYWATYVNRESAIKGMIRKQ
# T4 sequence (P18507 whole entry): T1 sequence (P18507 whole entry)
# T4 sequence (P28472 whole entry): T1 sequence (P28472 whole entry)
# [6] = target: Gamma-aminobutyric acid receptor subunit alpha-6/beta-3/gamma-2 (Homo sapiens, UniProt Q16445+P18507+P28472); assay: Displacement of [3H]flunitrazepam from human recombinant GABAA alpha-6-beta-3-gamma-2 receptor expressed in HEK cells by liquid scintillation counting
# Gamma-aminobutyric acid receptor subunit alpha-6/beta-3/gamma-2, sequence (Q16445 whole entry, one chain of several): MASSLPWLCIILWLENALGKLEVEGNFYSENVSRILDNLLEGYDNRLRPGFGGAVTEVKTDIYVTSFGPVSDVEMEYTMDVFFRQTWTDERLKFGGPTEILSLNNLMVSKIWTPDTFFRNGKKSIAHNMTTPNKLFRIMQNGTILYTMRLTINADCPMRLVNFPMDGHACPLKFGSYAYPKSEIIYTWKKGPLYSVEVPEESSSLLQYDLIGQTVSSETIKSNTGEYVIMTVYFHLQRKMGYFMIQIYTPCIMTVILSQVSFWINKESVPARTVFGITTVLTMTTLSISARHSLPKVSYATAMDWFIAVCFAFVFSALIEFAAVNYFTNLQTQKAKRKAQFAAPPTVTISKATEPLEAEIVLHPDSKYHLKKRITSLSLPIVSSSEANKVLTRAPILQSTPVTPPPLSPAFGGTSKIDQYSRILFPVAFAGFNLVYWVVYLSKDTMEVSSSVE
Ki [4] [nM],Ki [6] [µM],Structure (SMILES),Ki [1] [nM],Ki [2] [nM],Ki [3] [nM],Ki [5] [nM]
3000,5,"CC(OC(=O)c1cc2c(cn1)[nH]c1ccccc12)C(Cl)(Cl)Cl (stereo not given) [1,1,1-trichloropropan-2-yl 9H-pyrido[3,4-b]indole-3-carboxylate]",2000,2000,2000,2000
–,–,"CCC(OC(=O)c1cc2c(cn1)[nH]c1ccccc12)C(F)(F)F (stereo not given) [1,1,1-trifluorobutan-2-yl 9H-pyrido[3,4-b]indole-3-carboxylate]",1000,1000,1000,1000
